# ChEMBL document CHEMBL1147611, “Anti-AIDS agents. Part 57: Actein, an anti-HIV principle from the rhizome of Cimicifuga racemosa (black cohosh), and the anti-HIV activity of related saponins” (Bioorg Med Chem Lett, 2004)
# System: not listed separately
# Assay: Therapeutic index of compound was determined by the ratio of IC50 to that of EC50
# Format: cell-based
# Details: human, H9 cells; read-out: TI
row,SMILES,selectivity ratio
1,C[C@@H]1C[C@H]2O[C@@]3(O[C@@H]2C(C)(C)O)[C@H](O)[C@@]2(C)[C@@H]4CC[C@H]5C(C)(C)[C@@H](O[C@@H]6OC[C@@H](O)[C@H](O)[C@H]6O)CC[C@@]56C[C@@]46CC[C@]2(C)[C@@H]13,30.2
2,CC(=O)O[C@@H]1C[C@@]23C[C@@]24CC[C@H](OC2OCC(O)C(O)C2O)C(C)(C)[C@@H]4CC[C@H]3[C@]2(C)C[C@@H]3O[C@]4(C[C@@H](C)[C@@H]3[C@@]12C)OC[C@]1(C)O[C@H]41 (some centres undefined),30.2
3,CC(=O)OC1COC(O[C@H]2CC[C@]34C[C@]35CC[C@]3(C)[C@@H]([C@H](C)C[C@@H](OC(C)=O)[C@@H]6OC6(C)C)C(=O)[C@H](OC(C)=O)[C@@]3(C)[C@@H]5CC[C@H]4C2(C)C)C(OC(C)=O)C1OC(C)=O (some centres undefined),30.2
4,CC(=O)O[C@@H]1C[C@@]23C[C@@]24CC[C@H](OC2OCC(O)C(O)C2O)C(C)(C)[C@@H]4CC[C@H]3[C@]2(C)C[C@@H]3O[C@]4(C[C@@H](C)[C@@H]3[C@@]12C)O[C@H](O)[C@@]1(C)O[C@@H]41 (some centres undefined),144
5,C[C@H]1[C@H]2[C@H](C[C@@]3(C)C4=CC[C@H]5C(C)(C)[C@@H](OC6OCC(O)C(O)C6O)CC[C@@]56C[C@@]46CC[C@]23C)O[C@@]2(O)[C@@H]1OC(C)(C)[C@H]2O (some centres undefined),30.2
6,C[C@@H]1C[C@]2(C[C@@H](C)[C@H]3[C@@H](C[C@@]4(C)C5=C(CC[C@]34C)[C@@]3(C)CC[C@H](O[C@@H]4O[C@@H](O[C@@H]6OC[C@H](O)[C@H](O)[C@@H]6O[C@@H]6O[C@@H](CO)[C@@H](O)[C@H](O)[C@@H]6O[C@@H]6O[C@@H](C)[C@H](O)[C@H](O)[C@H]6O)[C@@H](O)[C@H](O)[C@@H]4O)[C@@](C)(CO)[C@@H]3CC5)O2)OC1=O,30.2
7,C[C@H]1[C@H]2[C@H](C[C@@]3(C)[C@@H]4CC[C@H]5C(C)(C)[C@@H](OC6OCC(O)C(O)C6O)CC[C@@]56C[C@@]46CC[C@]23C)O[C@@]2(O)[C@@H]1OC(C)(C)[C@H]2O (some centres undefined),30.2

# System: H9
# Assay: Effective concentration required to suppress HIV replication in H9 lymphocytes was determined
# Format: functional, cell-based
# Details: Homo sapiens
row,SMILES,EC50
1,CC(=O)O[C@@H]1C[C@@]23C[C@@]24CC[C@H](OC2OCC(O)C(O)C2O)C(C)(C)[C@@H]4CC[C@H]3[C@]2(C)C[C@@H]3O[C@]4(C[C@@H](C)[C@@H]3[C@@]12C)O[C@H](O)[C@@]1(C)O[C@@H]41 (some centres undefined),0.375 µg/mL
2,C[C@@H]1CC[C@@]2(OC1)O[C@H]1C[C@H]3[C@@H]4CC[C@@H]5C[C@@H](O[C@@H]6O[C@@H](CO)[C@@H](O)[C@H](O)[C@@H]6O[C@@H]6O[C@H](C)[C@H](O)[C@@H](O)[C@@H]6O)CC[C@]5(C)[C@H]4CC[C@]3(C)[C@H]1[C@@H]2C,< 0.25 µg/mL
3,C[C@@H]1CC[C@@]2(OC1)O[C@H]1C[C@H]3[C@@H]4CC[C@@H]5C[C@@H](O[C@@H]6O[C@@H](CO)[C@H](O)[C@H](O)[C@@H]6O[C@@H]6O[C@@H](CO)[C@@H](O)[C@H](O)[C@@H]6O)CC[C@]5(C)[C@H]4CC[C@]3(C)[C@H]1[C@@H]2C,< 0.25 µg/mL

# System: H9
# Assay: Effective concentration required to suppress HIV replication in H9 lymphocytes was determined; Moderate activity
# Format: functional, cell-based, Homo sapiens
# Details: not given
row,EC50,SMILES
1,Moderate,C=CC(C)(O)CC/C=C(\CO)C(=O)O[C@H]1[C@H](O[C@@H]2[C@H](OC(=O)[C@]34CCC(C)(C)C[C@H]3C3=CC[C@@H]5[C@@]6(C)CC[C@H](O[C@H]7O[C@@H](CO[C@@H]8OC[C@H](O)[C@@H](O)[C@@H]8O[C@@H]8OC[C@@H](O)[C@H](O)[C@@H]8O)[C@@H](O)[C@H](O)[C@@H]7O)C(C)(C)[C@@H]6CC[C@@]5(C)[C@]3(C)CC4)O[C@@H](COC(=O)/C(=C/CC[C@](C)(C=C)O[C@@H]3OC[C@@H](O)[C@H](O)[C@@H]3OC(=O)/C(=C/CC[C@@](C)(O)C=C)CO)CO)[C@@H](O)[C@@H]2O)O[C@@H](C)[C@H](O[C@@H]2OC[C@@H](O)[C@H](O[C@@H]3OC[C@@H](O)[C@H](O)[C@@H]3O)[C@@H]2O)[C@@H]1O (some centres undefined)
2,Moderate,C=CC(C)(O)CC/C=C(\CO)C(=O)O[C@H]1[C@@H](OC[C@@H]2O[C@@H](OC(=O)[C@]34CCC(C)(C)C[C@H]3C3=CC[C@@H]5[C@@]6(C)CC[C@H](O[C@@H]7O[C@@H](CO[C@@H]8OC[C@H](O)[C@H](O)[C@@H]8O[C@@H]8OC[C@@H](O)[C@H](O)[C@@H]8O)[C@@H](O)[C@H](O)[C@@H]7O)C(C)(C)[C@@H]6CC[C@@]5(C)[C@]3(C)C[C@H]4O)C(O[C@@H]3O[C@@H](C)[C@H](O[C@@H]4OC[C@@H](O)[C@H](O[C@@H]5OC[C@@H](O)[C@H](O)C5O)[C@@H]4O)[C@H](O)[C@H]3O)[C@@H](O)[C@@H]2O)O[C@@H](C)[C@H](O)[C@@H]1OC(=O)/C(=C/CCC(C)(O)C=C)CO (some centres undefined)
3,Moderate,C=CC(C)(O)CC/C=C(\CO)C(=O)OC[C@@H]1O[C@@H](OC(=O)[C@]23CCC(C)(C)C[C@H]2C2=CC[C@@H]4[C@@]5(C)CC[C@H](O[C@@H]6O[C@@H](CO[C@@H]7OC[C@H](O)[C@H](O)[C@@H]7O[C@@H]7OC[C@@H](O)[C@H](O)[C@@H]7O)[C@@H](O)[C@H](O)[C@@H]6O)C(C)(C)[C@@H]5CC[C@@]4(C)[C@]2(C)CC3)C(O[C@@H]2O[C@@H](C)[C@H](O[C@@H]3OC[C@@H](O)[C@H](O[C@@H]4OC[C@@H](O)[C@H](O)C4O)[C@@H]3O)[C@H](O)[C@H]2O)[C@@H](O)[C@@H]1O (some centres undefined)
4,Moderate,C=CC(C)(O)CC/C=C(\CO)C(=O)OC[C@@H]1O[C@@H](OC(=O)[C@]23CCC(C)(C)C[C@H]2C2=CC[C@@H]4[C@@]5(C)CC[C@H](O[C@@H]6O[C@@H](CO[C@@H]7OC[C@H](O)[C@H](O)[C@@H]7O[C@@H]7OC[C@@H](O)[C@H](O)[C@@H]7O)[C@@H](O)[C@H](O)[C@@H]6O)C(C)(C)[C@@H]5CC[C@@]4(C)[C@]2(C)C[C@H]3O)C(O[C@@H]2O[C@@H](C)[C@H](O[C@@H]3OC[C@@H](O)[C@H](O[C@@H]4OC[C@@H](O)[C@H](O)C4O)[C@@H]3O)[C@H](O)[C@H]2O)[C@@H](O)[C@@H]1O (some centres undefined)
